Converted amounts (≈) assume the structure as drawn. The source made the active and inactive calls. The calls are words filed in the database; no cut-off is given here.
Key:
[1] = tested on: DLA; experiment: Induction of apoptosis in Swiss albino mouse DLA cells assessed as nucleolus pyknosis at 50 and 100 ug/ml after 12 hrs by AO/EtBr staining based fluorescence microscopic analysis; assay type: functional, cell-based
[2] = tested on: Bacillus subtilis; experiment: Antibacterial activity against clinical isolate Gram-positive Bacillus subtilis after 24 hrs by agar diffusion assay; assay type: functional
[3] = tested on: DLA; experiment: Induction of apoptosis in Swiss albino mouse DLA cells assessed as cytoplasmic vacuoles at 50 and 100 ug/ml after 12 hrs by AO/EtBr staining based fluorescence microscopic analysis; assay type: functional, cell-based
[4] = tested on: Proteus vulgaris; experiment: Antibacterial activity against clinical isolates Proteus vulgaris after 24 hrs by agar diffusion assay; assay type: functional
[5] = tested on: DLA; experiment: Induction of apoptosis in Swiss albino mouse DLA cells assessed as chromatin condensation at 25,50 and 100 ug/ml after 12 hrs by AO/EtBr staining based fluorescence microscopic analysis; assay type: functional, cell-based
[6] = tested on: DLA; experiment: Induction of apoptosis in Swiss albino mouse DLA cells assessed as nuclear fragmentation at 25,50 and 100 ug/ml after 12 hrs by AO/EtBr staining based fluorescence microscopic analysis; assay type: functional, cell-based
[7] = Induction of apoptosis in Swiss albino mouse DLA cells at 100 ug/ml after 12 hrs by AO/EtBr staining based fluorescence microscopic analysis; assay type: functional
[8] = tested on: DLA; experiment: Induction of apoptosis in Swiss albino mouse DLA cells assessed as cell shrinkage at 25,50 and 100 ug/ml after 12 hrs by AO/EtBr staining based fluorescence microscopic analysis; assay type: functional
[9] = tested on: DLA; experiment: Induction of apoptosis in Swiss albino mouse DLA cells assessed as nuclear fragmentation at 50 and 100 ug/ml after 12 hrs by AO/EtBr staining based fluorescence microscopic analysis; assay type: functional, cell-based
[10] = tested on: DLA; experiment: Induction of apoptosis in Swiss albino mouse DLA cells assessed as membrane blebbing at 25,50 and 100 ug/ml after 12 hrs by AO/EtBr staining based fluorescence microscopic analysis; assay type: functional, cell-based
[11] = tested on: Staphylococcus aureus; experiment: Antibacterial activity against clinical isolates Staphylococcus aureus after 24 hrs by agar diffusion assay; assay type: functional
[12] = tested on: Escherichia coli; experiment: Antibacterial activity against clinical isolates Escherichia coli after 24 hrs by agar diffusion assay; assay type: functional
[13] = tested on: Pseudomonas syringae; experiment: Antibacterial activity against clinical isolate Gram-negative Pseudomonas syringae after 24 hrs by agar diffusion assay; assay type: functional

Row | SMILES | Activity [1] | MIC [2] [µg/mL] | Activity [3] | MIC [4] [µg/mL] | Activity [5] | Activity [6] | Activity [7] [%] | Activity [8] | Activity [9] | Activity [10] | MIC [11] [µg/mL] | MIC [12] [µg/mL] | MIC [13] [µg/mL]
1 | COc1ccc([C@H](c2c(C)[nH][nH]c2=O)c2c(O)[nH]c(=O)[nH]c2=O)cc1 | Active | 100 (≈ 290 µM) | Active | 100 (≈ 290 µM) | Active | Active | 15 | Active | Active | Active | – | – | –
2 | Cc1[nH][nH]c(=O)c1[C@@H](c1ccccc1Cl)c1c(O)[nH]c(=O)[nH]c1=O | – | 100 (≈ 287 µM) | – | 100 (≈ 287 µM) | Active | Active | – | Active | – | Active | 100 (≈ 287 µM) | 100 (≈ 287 µM) | 100 (≈ 287 µM)
3 | CCC[C@H](c1c(C)[nH][nH]c1=O)c1c(O)[nH]c(=O)[nH]c1=O | Active | 100 (≈ 357 µM) | Active | – | Active | Active | 12 | Active | Active | Active | – | – | –
4 | NC[C@H]1O[C@H](O[C@H]2[C@H](O)[C@@H](O[C@H]3O[C@H](CO)[C@@H](O)[C@H](N)[C@H]3O)[C@H](N)C[C@@H]2N)[C@H](O)[C@@H](O)[C@@H]1O [KANAMYCIN] | – | 5 (≈ 10.3 µM) | – | 5 (≈ 10.3 µM) | – | – | – | – | – | – | 80 (≈ 165 µM) | 5 (≈ 10.3 µM) | 10 (≈ 20.6 µM)
5 | Cc1[nH][nH]c(=O)c1[C@@H](c1ccccc1)c1c(O)[nH]c(=S)[nH]c1=O | – | – | – | – | Active | Active | – | Active | – | Active | – | – | –
6 | Cc1[nH][nH]c(=O)c1[C@@H](c1cccc(Br)c1)c1c(O)[nH]c(=O)[nH]c1=O | Active | 25 (≈ 63.6 µM) | Active | 100 (≈ 254 µM) | Active | Active | 13 | Active | Active | Active | – | – | 100 (≈ 254 µM)
7 | COc1ccccc1[C@H](c1c(C)[nH][nH]c1=O)c1c(O)[nH]c(=O)[nH]c1=O | – | 100 (≈ 290 µM) | – | 100 (≈ 290 µM) | Active | Active | – | Active | – | Active | 100 (≈ 290 µM) | 100 (≈ 290 µM) | 100 (≈ 290 µM)
8 | Cc1[nH][nH]c(=O)c1[C@@H](c1cccnc1)c1c(O)[nH]c(=O)[nH]c1=O | – | 100 (≈ 317 µM) | – | – | Active | Active | – | Active | – | Active | – | – | –
9 | Cc1[nH][nH]c(=O)c1[C@@H](c1ccccc1)c1c(O)[nH]c(=O)[nH]c1=O | – | 100 (≈ 318 µM) | – | 100 (≈ 318 µM) | Active | Active | – | Active | – | Active | – | – | –
10 | CCOC(=O)[C@H](c1c(C)[nH][nH]c1=O)c1c(O)[nH]c(=O)[nH]c1=O | Active | 100 (≈ 322 µM) | Active | 100 (≈ 322 µM) | Active | Active | 23 | Active | Active | Active | 100 (≈ 322 µM) | 100 (≈ 322 µM) | 100 (≈ 322 µM)
11 | Cc1[nH][nH]c(=O)c1[C@@H](c1cccc(O)c1)c1c(O)[nH]c(=O)[nH]c1=O | – | 25 (≈ 75.7 µM) | – | 100 (≈ 303 µM) | Active | Active | – | Active | – | Active | 100 (≈ 303 µM) | – | –
12 | Cc1[nH][nH]c(=O)c1[C@@H](c1ccc(Cl)cc1)c1c(O)[nH]c(=S)[nH]c1=O | – | 100 (≈ 274 µM) | – | 100 (≈ 274 µM) | Active | Active | – | Active | – | Active | – | – | –
13 | Cc1[nH][nH]c(=O)c1[C@@H](c1ccc(F)cc1)c1c(O)[nH]c(=S)[nH]c1=O | – | – | – | – | Active | Active | – | Active | – | Active | – | – | –
14 | Cc1[nH][nH]c(=O)c1[C@@H](c1cccc([N+](=O)[O-])c1)c1c(O)[nH]c(=S)[nH]c1=O | – | – | – | – | Active | Active | – | Active | – | Active | – | – | –
15 | Cc1[nH][nH]c(=O)c1[C@@H](c1ccc(F)cc1)c1c(O)[nH]c(=O)[nH]c1=O | – | 100 (≈ 301 µM) | – | 100 (≈ 301 µM) | Active | Active | – | Active | – | Active | – | – | 25 (≈ 75.2 µM)
16 | CCCC[C@H](c1c(C)[nH][nH]c1=O)c1c(O)[nH]c(=O)[nH]c1=O | – | – | – | – | Active | Active | – | Active | – | Active | – | – | –
17 | Cc1[nH][nH]c(=O)c1[C@@H](c1ccccc1[N+](=O)[O-])c1c(O)[nH]c(=O)[nH]c1=O | – | 100 (≈ 278 µM) | – | 100 (≈ 278 µM) | Active | Active | – | Active | – | Active | – | 100 (≈ 278 µM) | 100 (≈ 278 µM)
18 | Cc1[nH][nH]c(=O)c1[C@@H](c1ccc(Cl)cc1)c1c(O)[nH]c(=O)[nH]c1=O | Active | 25 (≈ 71.7 µM) | Active | 100 (≈ 287 µM) | Active | Active | 18 | Active | Active | Active | – | – | –
19 | CC1(C)S[C@@H]2[C@H](NC(=O)[C@H](N)c3ccccc3)C(=O)N2[C@H]1C(=O)O [AMPICILLIN] | – | 5 (≈ 14.3 µM) | – | 5 (≈ 14.3 µM) | – | – | – | – | – | – | 5 (≈ 14.3 µM) | 5 (≈ 14.3 µM) | 5 (≈ 14.3 µM)
20 | Cc1[nH][nH]c(=O)c1[C@@H](c1cccc([N+](=O)[O-])c1)c1c(O)[nH]c(=O)[nH]c1=O | Active | 100 (≈ 278 µM) | Active | 100 (≈ 278 µM) | Active | Active | 15 | Active | Active | Active | – | – | –
21 | Cc1[nH][nH]c(=O)c1[C@@H](c1ccc([N+](=O)[O-])cc1)c1c(O)[nH]c(=O)[nH]c1=O | Active | 100 (≈ 278 µM) | Active | 100 (≈ 278 µM) | Active | Active | 12 | Active | Active | Active | – | – | –
22 | CCC[C@H](c1c(C)[nH][nH]c1=O)c1c(O)[nH]c(=S)[nH]c1=O | – | 100 (≈ 337 µM) | – | – | Active | Active | – | Active | – | Active | – | – | –

Source: ChEMBL document CHEMBL3734682, “PPL catalyzed four-component PASE synthesis of 5-monosubstituted barbiturates: Structure and pharmacological properties” (2015)
